Read-outs that look alike come from different tables or passages of the source.
Key:
[1] = tested on: bromodomain; test: at least one of the bromodomain cell assays of Example 57; format: cell-based; settings: at least one of the bromodomain cell assays described in Example 57; read-out: IC50 in at least one of the bromodomain cell assays
[2] = molecular target: BRD4-BD12 (1-477) (Homo sapiens (Human), UniProt O60885); test: Alphascreen binding assay BRD4-BD12; settings: BRD4(1 2) H4; read-out: Biochemical activity (IC50 μM) BRD4(1 2) H4
Procedure, shortened: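 In this competition format, compounds displace a biotinylated tetra-acetyl H4 peptide from E. coli-expressed human BRD4 bromodomain constructs captured on nickel chelate beads. The reaction runs at pH 7.5 with 2 mM DTT and detergent for 1 h at room temperature before a 30 min bead step.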

[3] = tested on: MV-4-11 cells; test: Oncology cell growth assay MV-4-11 (CellTiter Glo); format: cell-based; settings: Homo sapiens, MV4-11, 72 h, read-out: Cell activity (IC50 μM) MV-4-11 3d-Growth
Procedure, shortened: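 Growth read by CellTiter Glo luminescence after 72 h compound treatment of MLL-AF4-bearing MV-4-11 cells (3000/well). Titration: 8 points, 1:3 steps, maximum 10 μM, 0.2% DMSO final. Data normalized to DMSO wells, four-parameter fit gives pIC50.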

Work on `Cc1noc(C)c1-c1cnc2c(-c3ccc(S(=O)(=O)NC4CC4)cc3)cn(CC3(F)CCCCC3)c2c1` [P-0494, N-cyclopropyl-4-[6-(3,5-dimethylisoxazol-4-yl)-1-[(1-fluorocyclohexyl)methyl]pyrrolo[3,2-b]pyridin-3-yl]benzenesulfonamide] yielded an IC50 [1] of under 10 µM, an IC50 [2] of under 1 µM and an IC50 ([3]; MV-4-11, 3d growth) of under 1 µM.

Molecule `Cc1noc(C)c1-c1cnc2c(-c3cnn(CC(F)(F)F)c3)cn(Cc3ccc(Cl)cc3)c2c1` [P-0365, 4-[1-[(4-chlorophenyl)methyl]-3-[1-(2,2,2-trifluoroethyl)pyrazol-4-yl]pyrrolo[3,2-b]pyridin-6-yl]-3,5-dimethyl-isoxazole] has an IC50 [1] of under 10 µM, an IC50 [2] of under 1 µM and an IC50 [3] of under 1 µM.

Work on `Cc1noc(C)c1-c1cnc2c(-c3ccc(N)nc3)cn(CC3(F)CCCCC3)c2c1` [P-0520, 5-[6-(3,5-dimethylisoxazol-4-yl)-1-[(1-fluorocyclohexyl)methyl]pyrrolo[3,2-b]pyridin-3-yl]pyridin-2-amine] yielded an IC50 [1] of under 10 µM, an IC50 [2] of under 1 µM and an IC50 ([3]; MV-4-11, 3d growth) of under 1 µM.

With `[2H]C([2H])(C1CCC(F)(F)CC1)n1cc(-c2cnn(CC)c2)c2ncc(-c3c(C)noc3C)cc21` [P-0336, 4-[1-[dideuterio-(4,4-difluorocyclohexyl)methyl]-3-(1-ethylpyrazol-4-yl)pyrrolo[3,2-b]pyridin-6-yl]-3,5-dimethyl-isoxazole] the IC50 [1] was under 10 µM, the IC50 [2] was under 1 µM and the IC50 [3] was under 1 µM.

`Cc1noc(C)c1-c1cnc2c(-c3ccc(S(=O)(=O)NC4CC4)cc3)cn([C@@H](C)c3ccccn3)c2c1` [P-0557, N-cyclopropyl-4-[6-(3,5-dimethylisoxazol-4-yl)-1-[(1S)-1-(2-pyridyl)ethyl]pyrrolo[3,2-b]pyridin-3-yl]benzenesulfonamide] showed an IC50 [1] of under 10 µM, an IC50 [2] of under 1 µM and an IC50 ([3]; MV-4-11, 3d growth) of under 1 µM.

Work on `[2H]C([2H])(C1CCC(F)(F)CC1)n1cc(-c2cnn(CCC#N)c2)c2ncc(-c3c(C)noc3C)cc21` [P-0339, 3-[4-[1-[dideuterio-(4,4-difluorocyclohexyl)methyl]-6-(3,5-dimethylisoxazol-4-yl)pyrrolo[3,2-b]pyridin-3-yl)pyrazol-1-yl]propanenitrile] yielded an IC50 [1] of under 10 µM, an IC50 [2] of under 1 µM and an IC50 [3] of under 1 µM.

`Cc1noc(C)c1-c1cnc2c(-c3ccc(C(=O)O)cc3)cn([C@H](c3ccccc3)c3ccccn3)c2c1` [P-0722, 4-[6-(3,5-dimethylisoxazol-4-yl)-1-[(R)-phenyl(2-pyridyl)methyl]pyrrolo[3,2-b]pyridin-3-yl]benzoic acid] was tested, and the IC50 [1] was under 10 µM, the IC50 [2] was under 1 µM and the IC50 ([3]; MV-4-11, 3d growth) was under 1 µM.

In the case of `Cc1ccc(-c2cn(CC3(F)CCCCC3)c3cc(-c4c(C)noc4C)cnc23)cn1` [P-0463, 4-[1-[(1-fluorocyclohexyl)methyl]-3-(6-methyl-3-pyridyl)pyrrolo[3,2-b]pyridin-6-yl]-3,5-dimethyl-isoxazole], the IC50 [1] is reported as under 10 µM, the IC50 [2] is reported as under 1 µM and the IC50 ([3]; MV-4-11, 3d growth) is reported as under 1 µM.

`[2H]C([2H])(C1CCC(F)(F)CC1)n1cc(-c2ccnc(C3CC3)c2)c2ncc(-c3c(C)noc3C)cc21` [P-0341, 4-[3-(2-cyclopropyl-4-pyridyl)-1-[dideuterio-(4,4-difluorocyclohexyl)methyl]pyrrolo[3,2-b]pyridin-6-yl]-3,5-dimethyl-isoxazole] showed an IC50 [1] of under 10 µM, an IC50 [2] of under 1 µM and an IC50 [3] of under 1 µM.

`Cc1cc(-c2cnc3c(-c4cnn(CC(F)(F)F)c4)cn(CC4CCC(F)(F)CC4)c3c2)c[nH]c1=O` [P-0481, 5-[1-[(4,4-difluorocyclohexyl)methyl]-3-[1-(2,2,2-trifluoroethyl)pyrazol-4-yl]pyrrolo[3,2-b]pyridin-6-yl]-3-methyl-1H-pyridin-2-one] was tested, and the IC50 [1] was under 10 µM, the IC50 [2] was under 1 µM and the IC50 ([3]; MV-4-11, 3d growth) was under 1 µM.

Molecule `Cc1nn(C)cc1-c1cn(CC2CCC(F)(F)CC2)c2cc(-c3c(C)noc3C)cnc12` [P-0395, 4-[1-[(4,4-difluorocyclohexyl)methyl]-3-(1,3-dimethylpyrazol-4-yl)pyrrolo[3,2-b]pyridin-6-yl]-3,5-dimethyl-isoxazole] has an IC50 [1] of under 10 µM, an IC50 [2] of under 1 µM and an IC50 [3] of under 1 µM.

Work on `Cc1noc(C)c1-c1cnc2c(-c3cccnc3)cn(CC3CCC(F)(F)CC3)c2c1` [P-0388, 4-[1-[(4,4-difluorocyclohexyl)methyl]-3-(3-pyridyl)pyrrolo[3,2-b]pyridin-6-yl]-3,5-dimethyl-isoxazole] yielded an IC50 [1] of under 10 µM, an IC50 [2] of under 1 µM and an IC50 [3] of under 1 µM.

With `Cc1noc(C)c1-c1cnc2c(-c3cn(C)nc3C(F)(F)F)cn(CC3CCC(F)(F)CC3)c2c1` [P-0410, 4-[1-[(4,4-difluorocyclohexyl)methyl]-3-[1-methyl-3-(trifluoromethyl)pyrazol-4-yl]pyrrolo[3,2-b]pyridin-6-yl]-3,5-dimethyl-isoxazole] the IC50 [1] was under 10 µM, the IC50 [2] was under 1 µM and the IC50 [3] was under 1 µM.

For `Cc1noc(C)c1-c1cnc2c(-c3cnn(C)c3)cn(CC3(F)CCC(F)(F)CC3)c2c1` [P-0381, 3,5-dimethyl-4-[3-(1-methylpyrazol-4-yl)-1-[(1,4,4-trifluorocyclohexyl)methyl]pyrrolo[3,2-b]pyridin-6-yl]isoxazole], the IC50 [1] was under 10 µM, the IC50 [2] was under 1 µM and the IC50 [3] was under 1 µM.

Work on `CC[C@@H](c1ccccc1)n1cc(-c2ccc(C(=O)O)cc2)c2ncc(-c3c(C)noc3C)cc21` [P-0567, 4-[6-(3,5-dimethylisoxazol-4-yl)-1-[(1S)-1-phenylpropyl]pyrrolo[3,2-b]pyridin-3-yl]benzoic acid] yielded an IC50 [1] of under 10 µM, an IC50 [2] of under 1 µM and an IC50 ([3]; MV-4-11, 3d growth) of under 1 µM.

In the case of `Cc1noc(C)c1-c1cnc2c(-c3ccc(C(=O)O)c(F)c3)cn(CC3CCC(F)(F)CC3)c2c1` [P-0406, 4-[1-[(4,4-difluorocyclohexyl)methyl]-6-(3,5-dimethylisoxazol-4-yl)pyrrolo[3,2-b]pyridin-3-yl]-2-fluoro-benzoic acid], the IC50 [1] is reported as under 10 µM, the IC50 [2] is reported as under 1 µM and the IC50 [3] is reported as under 1 µM.

For `CC[C@H](c1ccccc1)n1cc(-c2ccc(C(=O)O)cc2)c2ncc(-c3c(C)noc3C)cc21` [P-0570, 4-[6-(3,5-dimethylisoxazol-4-yl)-1-[(1R)-1-phenylpropyl]pyrrolo[3,2-b]pyridin-3-yl]benzoic acid], the IC50 [1] was under 10 µM, the IC50 [2] was under 1 µM and the IC50 ([3]; MV-4-11, 3d growth) was under 1 µM.

Molecule `CCOC(=O)c1ccc(-c2cn([C@@H](C)c3ccccn3)c3cc(-c4c(C)noc4C)cnc23)cc1` [P-0542, ethyl 4-[6-(3,5-dimethylisoxazol-4-yl)-1-[(1S)-1-(2-pyridyl)ethyl]pyrrolo[3,2-b]pyridin-3-yl]benzoate] has an IC50 [1] of under 10 µM, an IC50 [2] of under 1 µM and an IC50 ([3]; MV-4-11, 3d growth) of under 1 µM.

For `Cc1noc(C)c1-c1cnc2c(-c3ccc(C(=O)O)s3)cn(CC3(F)CCCCC3)c2c1` [P-0478, 5-[6-(3,5-dimethylisoxazol-4-yl)-1-[(1-fluorocyclohexyl)methyl]pyrrolo[3,2-b]pyridin-3-yl]thiophene-2-carboxylic acid], the IC50 [1] was under 10 µM, the IC50 [2] was under 1 µM and the IC50 ([3]; MV-4-11, 3d growth) was under 1 µM.

For `CNS(=O)(=O)c1ccc(-c2cn(CC3(F)CCCCC3)c3cc(-c4c(C)noc4C)cnc23)cc1` [P-0378, 4-[6-(3,5-dimethylisoxazol-4-yl)-1-[(1-fluorocyclohexyl)methyl]pyrrolo[3,2-b]pyridin-3-yl]-N-methyl-benzenesulfonamide], the IC50 [1] was under 10 µM, the IC50 [2] was under 1 µM and the IC50 [3] was under 1 µM.

In the case of `COC(=O)c1ccc(-c2cn(CC3(F)CCCCC3)c3cc(-c4c(C)noc4C)cnc23)cn1` [P-0453, methyl 5-[6-(3,5-dimethylisoxazol-4-yl)-1-[(1-fluorocyclohexyl)methyl]pyrrolo[3,2-b]pyridin-3-yl]pyridine-2-carboxylate], the IC50 [1] is reported as under 10 µM, the IC50 [2] is reported as under 1 µM and the IC50 ([3]; MV-4-11, 3d growth) is reported as under 1 µM.

`Cc1noc(C)c1-c1cnc2c(-c3ccc(C(C)(C)C)cc3)cn([C@@H](C)c3ccccn3)c2c1` [P-0806, 4-[3-(4-tert-butylphenyl)-1-[(1S)-1-(2-pyridyl)ethyl]pyrrolo[3,2-b]pyridin-6-yl]-3,5-dimethyl-isoxazole] gave an IC50 [1] of under 10 µM, an IC50 [2] of under 1 µM and an IC50 ([3]; MV-4-11, 3d growth) of 1 to 10 µM.

Molecule `Cc1noc(C)c1-c1cnc2c(-c3ccc4[nH]ncc4c3)cn(CC3(F)CCCCC3)c2c1` [P-0499, 4-[1-[(1-fluorocyclohexyl)methyl]-3-(1H-indazol-5-yl)pyrrolo[3,2-b]pyridin-6-yl]-3,5-dimethyl-isoxazole] has an IC50 [1] of under 10 µM, an IC50 [2] of under 1 µM and an IC50 ([3]; MV-4-11, 3d growth) of under 1 µM.

In the case of `Cc1ccc(-c2cn(Cc3ccccn3)c3cc(-c4c(C)noc4C)cnc23)cc1` [P-0805, 3,5-dimethyl-4-[3-(p-tolyl)-1-(2-pyridylmethyl)pyrrolo[3,2-b]pyridin-6-yl]isoxazole], the IC50 [1] is reported as under 10 µM, the IC50 [2] is reported as under 1 µM and the IC50 ([3]; MV-4-11, 3d growth) is reported as under 1 µM.

`Cc1noc(C)c1-c1cnc2c(-c3cccc(S(=O)(=O)NCCO)c3)cn(CC3(F)CCCCC3)c2c1` [P-0491, 3-[6-(3,5-dimethylisoxazol-4-yl)-1-[(1-fluorocyclohexyl)methyl]pyrrolo[3,2-b]pyridin-3-yl]-N-(2-hydroxyethyl)benzenesulfonamide] showed an IC50 [1] of under 10 µM, an IC50 [2] of under 1 µM and an IC50 ([3]; MV-4-11, 3d growth) of under 1 µM.

Molecule `Cc1noc(C)c1-c1cnc2c(-c3cnn(CC(F)(F)F)c3)cn(CC3CCCC3)c2c1` [P-0551, 4-[1-(cyclopentylmethyl)-3-[1-(2,2,2-trifluoroethyl)pyrazol-4-yl]pyrrolo[3,2-b]pyridin-6-yl]-3,5-dimethyl-isoxazole] has an IC50 [1] of under 10 µM, an IC50 [2] of under 1 µM and an IC50 ([3]; MV-4-11, 3d growth) of under 1 µM.

— patent US10519177B2, “Heterocyclic compounds and uses thereof” (Plexxikon Inc., priority 2013, dated 2019)
